# From patent publication US20070105792A1, “Administration Of DNA Methylation Inhibitors For Treating Epigenetic Diseases” (priority 2005, published 2007)
# Assay: Chemical stability of decitabine in reconstituted and diluted aqueous infusion fluid
# Details: for pH: after preparation of the infusion; for Average degradation rate / Maximum degradation (% peak area): 0.1-1 mg/mL; for Average degradation rate: estimate assuming linearity
# [1] = 0.1 mg/mL, 0.9% NaCl, Experiment 1: 2-8° C. one hour then room temperature, at 0 h
# [2] = 0.1 mg/mL, 0.9% NaCl, Experiment 1: 2-8° C. one hour then room temperature, at 1 h
# [3] = 0.1 mg/mL, 0.9% NaCl, Experiment 1: 2-8° C. one hour then room temperature, at 2 h
# [4] = 0.1 mg/mL, 0.9% NaCl, Experiment 1: 2-8° C. one hour then room temperature, at 3 h
# [5] = 0.1 mg/mL, 0.9% NaCl, Experiment 1: 2-8° C. one hour then room temperature, at 4 h
# [6] = 0.1 mg/mL, 0.9% NaCl, Experiment 2: 2-8° C. ten hours then room temperature, at 0 h
# [7] = 0.1 mg/mL, 0.9% NaCl, Experiment 2: 2-8° C. ten hours then room temperature, at 10 h
# [8] = 0.1 mg/mL, 0.9% NaCl, Experiment 2: 2-8° C. ten hours then room temperature, at 11 h
# [9] = 0.1 mg/mL, 0.9% NaCl, Experiment 2: 2-8° C. ten hours then room temperature, at 12 h
# [10] = 0.1 mg/mL, 5% Dextrose, Experiment 1: 2-8° C. one hour then room temperature, at 0 h
# [11] = 0.1 mg/mL, 5% Dextrose, Experiment 1: 2-8° C. one hour then room temperature, at 1 h
# [12] = 0.1 mg/mL, 5% Dextrose, Experiment 1: 2-8° C. one hour then room temperature, at 2 h
# [13] = 0.1 mg/mL, 5% Dextrose, Experiment 1: 2-8° C. one hour then room temperature, at 3 h
# [14] = 0.1 mg/mL, 5% Dextrose, Experiment 1: 2-8° C. one hour then room temperature, at 4 h
# [15] = 0.1 mg/mL, 5% Dextrose, Experiment 2: 2-8° C. ten hours then room temperature, at 0 h
# [16] = 0.1 mg/mL, 5% Dextrose, Experiment 2: 2-8° C. ten hours then room temperature, at 10 h
# [17] = 0.1 mg/mL, 5% Dextrose, Experiment 2: 2-8° C. ten hours then room temperature, at 11 h
# [18] = 0.1 mg/mL, 5% Dextrose, Experiment 2: 2-8° C. ten hours then room temperature, at 12 h
# [19] = 0.1 mg/mL, Lactated Ringer's, Experiment 1: 2-8° C. one hour then room temperature, at 0 h
# [20] = 0.1 mg/mL, Lactated Ringer's, Experiment 1: 2-8° C. one hour then room temperature, at 1 h
# [21] = 0.1 mg/mL, Lactated Ringer's, Experiment 1: 2-8° C. one hour then room temperature, at 2 h
# [22] = 0.1 mg/mL, Lactated Ringer's, Experiment 1: 2-8° C. one hour then room temperature, at 3 h
# [23] = 0.1 mg/mL, Lactated Ringer's, Experiment 1: 2-8° C. one hour then room temperature, at 4 h
# [24] = 0.1 mg/mL, Lactated Ringer's, Experiment 2: 2-8° C. ten hours then room temperature, at 0 h
# [25] = 0.1 mg/mL, Lactated Ringer's, Experiment 2: 2-8° C. ten hours then room temperature, at 10 h
# [26] = 0.1 mg/mL, Lactated Ringer's, Experiment 2: 2-8° C. ten hours then room temperature, at 11 h
# [27] = 0.1 mg/mL, Lactated Ringer's, Experiment 2: 2-8° C. ten hours then room temperature, at 12 h
# [28] = about 1.0 mg/mL, 0.9% NaCl, Experiment 1: 2-8° C. one hour then room temperature, at 0 h
# [29] = about 1.0 mg/mL, 0.9% NaCl, Experiment 1: 2-8° C. one hour then room temperature, at 1 h
# [30] = about 1.0 mg/mL, 0.9% NaCl, Experiment 1: 2-8° C. one hour then room temperature, at 2 h
# [31] = about 1.0 mg/mL, 0.9% NaCl, Experiment 1: 2-8° C. one hour then room temperature, at 3 h
# [32] = about 1.0 mg/mL, 0.9% NaCl, Experiment 1: 2-8° C. one hour then room temperature, at 4 h
# [33] = about 1.0 mg/mL, 0.9% NaCl, Experiment 2: 2-8° C. ten hours then room temperature, at 0 h
# [34] = about 1.0 mg/mL, 0.9% NaCl, Experiment 2: 2-8° C. ten hours then room temperature, at 10 h
# [35] = about 1.0 mg/mL, 0.9% NaCl, Experiment 2: 2-8° C. ten hours then room temperature, at 11 h
# [36] = about 1.0 mg/mL, 0.9% NaCl, Experiment 2: 2-8° C. ten hours then room temperature, at 12 h
# [37] = about 1.0 mg/mL, 5% Dextrose, Experiment 1: 2-8° C. one hour then room temperature, at 0 h
# [38] = about 1.0 mg/mL, 5% Dextrose, Experiment 1: 2-8° C. one hour then room temperature, at 1 h
# [39] = about 1.0 mg/mL, 5% Dextrose, Experiment 1: 2-8° C. one hour then room temperature, at 2 h
# [40] = about 1.0 mg/mL, 5% Dextrose, Experiment 1: 2-8° C. one hour then room temperature, at 3 h
# [41] = about 1.0 mg/mL, 5% Dextrose, Experiment 1: 2-8° C. one hour then room temperature, at 4 h
# [42] = about 1.0 mg/mL, 5% Dextrose, Experiment 2: 2-8° C. ten hours then room temperature, at 0 h
# [43] = about 1.0 mg/mL, 5% Dextrose, Experiment 2: 2-8° C. ten hours then room temperature, at 10 h
# [44] = about 1.0 mg/mL, 5% Dextrose, Experiment 2: 2-8° C. ten hours then room temperature, at 11 h
# [45] = about 1.0 mg/mL, 5% Dextrose, Experiment 2: 2-8° C. ten hours then room temperature, at 12 h
# [46] = about 1.0 mg/mL, Lactated Ringer's, Experiment 1: 2-8° C. one hour then room temperature, at 0 h
# [47] = about 1.0 mg/mL, Lactated Ringer's, Experiment 1: 2-8° C. one hour then room temperature, at 1 h
# [48] = about 1.0 mg/mL, Lactated Ringer's, Experiment 1: 2-8° C. one hour then room temperature, at 2 h
# [49] = about 1.0 mg/mL, Lactated Ringer's, Experiment 1: 2-8° C. one hour then room temperature, at 3 h
# [50] = about 1.0 mg/mL, Lactated Ringer's, Experiment 1: 2-8° C. one hour then room temperature, at 4 h
# [51] = about 1.0 mg/mL, Lactated Ringer's, Experiment 2: 2-8° C. ten hours then room temperature, at 0 h
# [52] = about 1.0 mg/mL, Lactated Ringer's, Experiment 2: 2-8° C. ten hours then room temperature, at 10 h
# [53] = about 1.0 mg/mL, Lactated Ringer's, Experiment 2: 2-8° C. ten hours then room temperature, at 11 h
# [54] = about 1.0 mg/mL, Lactated Ringer's, Experiment 2: 2-8° C. ten hours then room temperature, at 12 h
smiles,measurement,setting,value
"Nc1ncn([C@H]2C[C@H](O)[C@@H](CO)O2)c(=O)n1 [Decitabine, 5-aza-2′-deoxycytidine]",Decitabine Content (%),[1],97.5%
same,Total Impurities (%),[1],(2.5%)
same,Decitabine Content (%),[2],96.9%
same,Total Impurities (%),[2],(3.2%)
same,Decitabine Content (%),[3],95.7%
same,Total Impurities (%),[3],(4.3%)
same,Decitabine Content (%),[4],94.1%
same,Total Impurities (%),[4],(6.0%)
same,Decitabine Content (%),[5],92.5%
same,Total Impurities (%),[5],(7.7%)
same,Decitabine Content (%),[6],97.8%
same,Total Impurities (%),[6],(2.2%)
same,Decitabine Content (%),[7],93.4%
same,Total Impurities (%),[7],(6.7%)
same,Decitabine Content (%),[8],92.3%
same,Total Impurities (%),[8],(7.7%)
same,Decitabine Content (%),[9],90.8%
same,Total Impurities (%),[9],(9.2%)
same,pH,"0.1 mg/mL, 0.9% NaCl",6.7
same,Decitabine Content (%),[10],97.4%
same,Total Impurities (%),[10],(2.6%)
same,Decitabine Content (%),[11],97.2%
same,Total Impurities (%),[11],(2.7%)
same,Decitabine Content (%),[12],96.4%
same,Total Impurities (%),[12],(3.6%)
same,Decitabine Content (%),[13],94.9%
same,Total Impurities (%),[13],(5.1%)
same,Decitabine Content (%),[14],93.6%
same,Total Impurities (%),[14],(6.4%)
same,Decitabine Content (%),[15],98.2%
same,Total Impurities (%),[15],(1.9%)
same,Decitabine Content (%),[16],94.9%
same,Total Impurities (%),[16],(5.2%)
same,Decitabine Content (%),[17],94.5%
same,Total Impurities (%),[17],(5.6%)
same,Decitabine Content (%),[18],93.3%
same,Total Impurities (%),[18],(6.7%)
same,pH,"0.1 mg/mL, 5% Dextrose",6.9
same,Decitabine Content (%),[19],98.3%
same,Total Impurities (%),[19],(1.7%)
same,Decitabine Content (%),[20],98.1%
same,Total Impurities (%),[20],(1.9%)
same,Decitabine Content (%),[21],97.0%
same,Total Impurities (%),[21],(3.0%)
same,Decitabine Content (%),[22],95.9%
same,Total Impurities (%),[22],(4.1%)
same,Decitabine Content (%),[23],94.9%
same,Total Impurities (%),[23],(5.2%)
same,Decitabine Content (%),[24],98.0%
same,Total Impurities (%),[24],(2.1%)
same,Decitabine Content (%),[25],93.4%
same,Total Impurities (%),[25],(6.7%)
same,Decitabine Content (%),[26],92.6%
same,Total Impurities (%),[26],(7.4%)
same,Decitabine Content (%),[27],91.8%
same,Total Impurities (%),[27],(8.3%)
same,pH,"0.1 mg/mL, Lactated Ringer's",6.7
same,Average degradation rate,@ 4° C.,0.40 %/hr
same,Average degradation rate,@ Room Temperature,2.44 %/hr
same,Maximum degradation (% peak area),S1 (6 hr stored @4° C. + 3 hr @ RT during infusion),9.72 % peak area
same,Maximum degradation (% peak area),S2 (7 hr stored @4° C. + 3 hr @ RT during infusion),10.12 % peak area
same,Maximum degradation (% peak area),S3 (7 hr stored @4° C. + 2 hr @ RT during infusion),7.68 % peak area
same,Maximum degradation (% peak area),S4 (8 hr stored @4° C. + 3 hr @ RT during infusion),10.52 % peak area
same,Maximum degradation (% peak area),S5 (8 hr stored @4° C. + 2 hr @ RT during infusion),8.08 % peak area
same,Maximum degradation (% peak area),S6 (9 hr stored @4° C. + 2 hr @ RT during infusion),8.48 % peak area
same,Maximum degradation (% peak area),S7 (10 hr stored @4° C. + 2 hr @ RT during infusion),8.88 % peak area
same,pH deviation from neutral pH after preparation of the infusion,Table 1 and Table 2 solutions,≤ 0.3 pH units
same,Decitabine Content (%),[28],98.0%
same,Total Impurities (%),[28],(2.1%)
same,Decitabine Content (%),[29],96.8%
same,Total Impurities (%),[29],(3.3%)
same,Decitabine Content (%),[30],94.8%
same,Total Impurities (%),[30],(5.2%)
same,Decitabine Content (%),[31],92.8%
same,Total Impurities (%),[31],(7.3%)
same,Decitabine Content (%),[32],91.1%
same,Total Impurities (%),[32],(9.0%)
same,Decitabine Content (%),[33],97.4%
same,Total Impurities (%),[33],(2.7%)
same,Decitabine Content (%),[34],93.4%
same,Total Impurities (%),[34],(6.7%)
same,Decitabine Content (%),[35],92.5%
same,Total Impurities (%),[35],(7.6%)
same,Decitabine Content (%),[36],90.8%
same,Total Impurities (%),[36],(9.2%)
same,pH,"about 1.0 mg/mL, 0.9% NaCl",6.7
same,Decitabine Content (%),[37],98.0%
same,Total Impurities (%),[37],(2.0%)
same,Decitabine Content (%),[38],97.0%
same,Total Impurities (%),[38],(3.1%)
same,Decitabine Content (%),[39],95.6%
same,Total Impurities (%),[39],(4.4%)
same,Decitabine Content (%),[40],93.7%
same,Total Impurities (%),[40],(6.4%)
same,Decitabine Content (%),[41],91.9%
same,Total Impurities (%),[41],(8.1%)
same,Decitabine Content (%),[42],97.7%
same,Total Impurities (%),[42],(2.4%)
same,Decitabine Content (%),[43],94.5%
same,Total Impurities (%),[43],(5.5%)
same,Decitabine Content (%),[44],93.9%
same,Total Impurities (%),[44],(6.1%)
same,Decitabine Content (%),[45],93.0%
same,Total Impurities (%),[45],(7.1%)
same,pH,"about 1.0 mg/mL, 5% Dextrose",7.1
same,Decitabine Content (%),[46],98.1%
same,Total Impurities (%),[46],(2.0%)
same,Decitabine Content (%),[47],97.3%
same,Total Impurities (%),[47],(2.7%)
same,Decitabine Content (%),[48],96.2%
same,Total Impurities (%),[48],(3.8%)
same,Decitabine Content (%),[49],95.1%
same,Total Impurities (%),[49],(4.9%)
same,Decitabine Content (%),[50],93.7%
same,Total Impurities (%),[50],(6.4%)
same,Decitabine Content (%),[51],98.0%
same,Total Impurities (%),[51],(2.1%)
same,Decitabine Content (%),[52],94.1%
same,Total Impurities (%),[52],(5.9%)
same,Decitabine Content (%),[53],93.3%
same,Total Impurities (%),[53],(6.8%)
same,Decitabine Content (%),[54],91.8%
same,Total Impurities (%),[54],(8.2%)
same,pH,"about 1.0 mg/mL, Lactated Ringer's",6.8
same,Visual inspection of solutions,all reconstituted and diluted solutions,clear and colorless
same,Drug content in the infusion solution during infusion,infusions prepared and stored as instructed,above 90%
